Test results taken from ChEMBL document CHEMBL5291721, “A preclinical secondary pharmacology resource illuminates target-adverse drug reaction associations of marketed drugs” (Nat Commun, 2023).

Key:
[1] = molecular target: T1, Amine oxidase [flavin-containing] A (Homo sapiens, UniProt P21397); format: functional
T1 sequence (P21397 whole entry): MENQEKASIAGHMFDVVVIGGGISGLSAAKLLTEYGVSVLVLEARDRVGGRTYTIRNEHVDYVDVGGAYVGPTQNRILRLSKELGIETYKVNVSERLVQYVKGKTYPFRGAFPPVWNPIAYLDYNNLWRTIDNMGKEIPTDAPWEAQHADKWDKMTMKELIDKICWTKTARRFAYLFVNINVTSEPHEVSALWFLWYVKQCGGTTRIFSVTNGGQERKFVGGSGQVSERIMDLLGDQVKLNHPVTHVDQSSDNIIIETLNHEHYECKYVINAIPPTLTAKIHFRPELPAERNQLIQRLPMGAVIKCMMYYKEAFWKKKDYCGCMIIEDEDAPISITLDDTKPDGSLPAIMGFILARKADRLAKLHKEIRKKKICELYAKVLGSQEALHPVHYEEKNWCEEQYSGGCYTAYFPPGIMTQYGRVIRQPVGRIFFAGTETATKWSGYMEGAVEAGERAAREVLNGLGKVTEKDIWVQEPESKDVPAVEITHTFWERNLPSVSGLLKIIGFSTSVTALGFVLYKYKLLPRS

[2] = molecular target: T2, Cholecystokinin receptor type A (Homo sapiens, UniProt P32238)
T2 sequence (P32238 whole entry): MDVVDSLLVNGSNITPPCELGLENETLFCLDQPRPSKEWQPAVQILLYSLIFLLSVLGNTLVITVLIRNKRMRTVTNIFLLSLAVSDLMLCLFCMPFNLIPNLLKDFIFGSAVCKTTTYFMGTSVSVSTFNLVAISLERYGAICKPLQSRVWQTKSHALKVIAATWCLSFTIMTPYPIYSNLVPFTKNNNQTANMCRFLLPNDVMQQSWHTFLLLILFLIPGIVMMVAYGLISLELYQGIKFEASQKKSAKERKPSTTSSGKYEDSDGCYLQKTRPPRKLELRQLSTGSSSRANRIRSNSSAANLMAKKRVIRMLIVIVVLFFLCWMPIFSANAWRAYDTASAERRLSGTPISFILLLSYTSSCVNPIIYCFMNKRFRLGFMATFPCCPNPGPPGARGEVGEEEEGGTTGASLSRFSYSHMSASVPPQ

[3] = molecular target: Sodium-dependent dopamine transporter (Homo sapiens, UniProt Q01959)
[4] = molecular target: Voltage-dependent L-type calcium channel subunit alpha-1C (Rattus norvegicus, UniProt P22002); format: functional
[5] = molecular target: T3, Glucocorticoid receptor (Homo sapiens, UniProt P04150)
T3 sequence (P04150 whole entry): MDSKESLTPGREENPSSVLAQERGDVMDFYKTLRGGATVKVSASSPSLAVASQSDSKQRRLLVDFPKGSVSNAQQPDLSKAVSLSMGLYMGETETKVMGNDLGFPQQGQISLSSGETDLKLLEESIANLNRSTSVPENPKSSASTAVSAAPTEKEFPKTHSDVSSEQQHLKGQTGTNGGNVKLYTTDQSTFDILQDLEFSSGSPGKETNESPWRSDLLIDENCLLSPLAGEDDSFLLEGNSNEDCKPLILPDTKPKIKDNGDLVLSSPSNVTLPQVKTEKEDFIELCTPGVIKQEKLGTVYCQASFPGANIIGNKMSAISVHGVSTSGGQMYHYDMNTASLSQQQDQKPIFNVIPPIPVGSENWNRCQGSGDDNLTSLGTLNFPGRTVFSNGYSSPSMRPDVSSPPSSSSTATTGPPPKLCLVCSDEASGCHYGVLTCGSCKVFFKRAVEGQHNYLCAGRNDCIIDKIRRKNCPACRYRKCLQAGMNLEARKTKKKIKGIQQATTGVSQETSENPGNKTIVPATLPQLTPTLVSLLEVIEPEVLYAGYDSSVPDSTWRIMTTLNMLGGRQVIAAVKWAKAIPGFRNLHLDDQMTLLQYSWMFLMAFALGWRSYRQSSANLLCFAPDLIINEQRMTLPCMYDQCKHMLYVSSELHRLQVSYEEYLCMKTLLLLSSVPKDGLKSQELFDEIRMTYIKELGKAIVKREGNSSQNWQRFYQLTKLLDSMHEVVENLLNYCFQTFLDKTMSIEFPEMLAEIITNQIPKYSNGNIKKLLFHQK

[6] = molecular target: T4, Alpha-1A adrenergic receptor (Homo sapiens, UniProt P35348); format: functional, cell-based
T4 sequence (P35348 whole entry): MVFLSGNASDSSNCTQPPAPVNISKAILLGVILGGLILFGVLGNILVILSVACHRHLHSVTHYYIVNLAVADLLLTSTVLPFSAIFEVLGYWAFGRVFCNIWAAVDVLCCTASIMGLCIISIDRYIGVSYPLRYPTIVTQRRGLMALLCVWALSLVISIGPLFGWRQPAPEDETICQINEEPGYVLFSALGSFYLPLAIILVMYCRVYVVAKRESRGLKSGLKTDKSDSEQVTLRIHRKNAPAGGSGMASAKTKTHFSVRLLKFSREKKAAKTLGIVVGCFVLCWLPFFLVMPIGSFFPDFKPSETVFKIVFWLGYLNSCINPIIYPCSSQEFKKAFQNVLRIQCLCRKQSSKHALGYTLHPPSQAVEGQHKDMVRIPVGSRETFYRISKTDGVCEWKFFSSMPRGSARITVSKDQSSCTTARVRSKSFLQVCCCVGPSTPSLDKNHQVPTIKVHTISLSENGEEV

[7] = molecular target: D(3) dopamine receptor (Homo sapiens, UniProt P35462)
Also: assay procedure not described here.

Sodium-dependent dopamine transporter, sequence (Q01959 whole entry): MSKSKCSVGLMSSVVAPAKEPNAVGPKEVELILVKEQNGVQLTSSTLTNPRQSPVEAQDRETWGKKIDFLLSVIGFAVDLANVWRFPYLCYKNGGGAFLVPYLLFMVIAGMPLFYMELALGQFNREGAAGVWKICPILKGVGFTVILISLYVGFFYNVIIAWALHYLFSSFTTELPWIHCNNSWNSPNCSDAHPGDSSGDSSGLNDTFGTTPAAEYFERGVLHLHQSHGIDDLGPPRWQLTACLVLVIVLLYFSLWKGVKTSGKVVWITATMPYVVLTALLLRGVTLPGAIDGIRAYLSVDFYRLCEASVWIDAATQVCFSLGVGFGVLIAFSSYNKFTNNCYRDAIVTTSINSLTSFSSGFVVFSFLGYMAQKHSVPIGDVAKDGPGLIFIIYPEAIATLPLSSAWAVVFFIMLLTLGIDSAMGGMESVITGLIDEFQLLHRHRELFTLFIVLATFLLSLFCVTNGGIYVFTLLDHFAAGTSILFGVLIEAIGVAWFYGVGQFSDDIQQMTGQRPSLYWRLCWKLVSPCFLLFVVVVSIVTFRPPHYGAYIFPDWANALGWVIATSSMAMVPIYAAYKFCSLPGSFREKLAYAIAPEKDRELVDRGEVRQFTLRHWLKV
D(3) dopamine receptor, sequence (P35462 whole entry): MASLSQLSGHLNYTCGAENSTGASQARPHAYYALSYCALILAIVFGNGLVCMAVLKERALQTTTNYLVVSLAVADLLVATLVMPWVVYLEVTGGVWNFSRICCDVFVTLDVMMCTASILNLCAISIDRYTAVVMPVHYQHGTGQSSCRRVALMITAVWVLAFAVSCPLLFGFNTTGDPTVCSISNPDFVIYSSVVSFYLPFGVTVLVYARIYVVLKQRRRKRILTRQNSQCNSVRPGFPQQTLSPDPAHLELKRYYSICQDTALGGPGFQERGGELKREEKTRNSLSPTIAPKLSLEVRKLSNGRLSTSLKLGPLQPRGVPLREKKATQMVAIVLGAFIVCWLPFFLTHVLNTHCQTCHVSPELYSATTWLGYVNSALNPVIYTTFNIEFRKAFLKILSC
Voltage-dependent L-type calcium channel subunit alpha-1C, sequence (P22002 whole entry): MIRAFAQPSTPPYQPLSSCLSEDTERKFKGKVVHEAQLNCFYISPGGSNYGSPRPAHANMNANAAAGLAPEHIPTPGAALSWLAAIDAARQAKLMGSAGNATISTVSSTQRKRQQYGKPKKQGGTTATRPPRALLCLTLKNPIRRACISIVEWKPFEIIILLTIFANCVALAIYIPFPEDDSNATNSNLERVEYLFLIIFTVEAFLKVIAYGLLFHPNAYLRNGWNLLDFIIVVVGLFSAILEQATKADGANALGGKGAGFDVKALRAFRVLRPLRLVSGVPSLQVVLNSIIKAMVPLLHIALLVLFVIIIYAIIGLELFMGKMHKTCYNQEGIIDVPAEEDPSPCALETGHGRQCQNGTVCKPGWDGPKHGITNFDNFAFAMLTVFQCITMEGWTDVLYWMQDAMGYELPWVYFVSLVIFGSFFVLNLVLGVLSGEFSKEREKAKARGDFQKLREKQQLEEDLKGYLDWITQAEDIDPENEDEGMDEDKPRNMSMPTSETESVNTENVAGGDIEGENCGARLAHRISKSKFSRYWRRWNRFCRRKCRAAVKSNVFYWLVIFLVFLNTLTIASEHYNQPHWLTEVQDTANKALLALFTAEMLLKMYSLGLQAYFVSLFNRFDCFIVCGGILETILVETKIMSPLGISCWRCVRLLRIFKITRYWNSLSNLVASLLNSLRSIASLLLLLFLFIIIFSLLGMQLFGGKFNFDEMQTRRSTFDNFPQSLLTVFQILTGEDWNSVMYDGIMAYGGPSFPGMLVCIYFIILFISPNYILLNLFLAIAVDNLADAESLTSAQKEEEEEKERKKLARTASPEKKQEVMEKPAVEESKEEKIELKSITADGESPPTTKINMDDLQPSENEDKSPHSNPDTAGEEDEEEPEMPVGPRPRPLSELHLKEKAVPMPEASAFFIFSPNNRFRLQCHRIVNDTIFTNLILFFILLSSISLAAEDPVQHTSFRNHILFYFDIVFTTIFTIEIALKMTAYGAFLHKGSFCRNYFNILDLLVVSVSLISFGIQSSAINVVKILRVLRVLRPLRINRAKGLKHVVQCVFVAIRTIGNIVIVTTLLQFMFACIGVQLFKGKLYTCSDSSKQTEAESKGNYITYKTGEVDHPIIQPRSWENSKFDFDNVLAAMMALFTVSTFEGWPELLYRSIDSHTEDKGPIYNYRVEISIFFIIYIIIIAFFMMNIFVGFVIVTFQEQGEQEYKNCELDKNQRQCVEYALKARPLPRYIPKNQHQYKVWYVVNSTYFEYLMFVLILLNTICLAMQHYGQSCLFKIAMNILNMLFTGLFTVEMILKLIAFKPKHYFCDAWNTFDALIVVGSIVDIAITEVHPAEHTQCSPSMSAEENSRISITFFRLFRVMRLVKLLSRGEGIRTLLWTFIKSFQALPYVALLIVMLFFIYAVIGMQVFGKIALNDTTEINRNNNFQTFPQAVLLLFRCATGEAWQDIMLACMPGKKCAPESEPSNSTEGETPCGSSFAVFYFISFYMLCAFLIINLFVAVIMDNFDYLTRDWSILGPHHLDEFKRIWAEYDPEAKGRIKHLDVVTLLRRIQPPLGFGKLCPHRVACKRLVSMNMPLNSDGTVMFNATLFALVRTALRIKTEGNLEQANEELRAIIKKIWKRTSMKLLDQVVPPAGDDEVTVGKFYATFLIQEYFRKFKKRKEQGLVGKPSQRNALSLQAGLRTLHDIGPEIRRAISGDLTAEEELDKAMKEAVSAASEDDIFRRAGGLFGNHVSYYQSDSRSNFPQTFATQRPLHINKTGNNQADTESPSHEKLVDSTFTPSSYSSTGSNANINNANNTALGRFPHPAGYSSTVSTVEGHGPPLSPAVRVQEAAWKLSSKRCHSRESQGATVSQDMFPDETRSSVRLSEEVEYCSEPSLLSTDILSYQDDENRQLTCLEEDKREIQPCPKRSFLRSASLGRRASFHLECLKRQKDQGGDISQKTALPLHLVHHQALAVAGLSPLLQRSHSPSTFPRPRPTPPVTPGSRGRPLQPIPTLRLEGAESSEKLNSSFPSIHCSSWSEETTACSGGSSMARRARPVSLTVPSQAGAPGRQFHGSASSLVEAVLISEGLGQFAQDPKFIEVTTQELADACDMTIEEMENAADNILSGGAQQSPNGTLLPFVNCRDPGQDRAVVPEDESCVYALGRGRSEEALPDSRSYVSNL

SMILES | AC50 [1] [µM] | AC50 [2] [µM] | AC50 [3] [µM] | AC50 [4] [µM] | AC50 [5] [µM] | AC50 [6] [µM] | AC50 [7] [µM]
CCCN(CCc1cccs1)[C@H]1CCc2c(O)cccc2C1 [ROTIGOTINE] | > 30 | > 30 | 1.3 | – | – | – | –
CCc1oc2ccccc2c1C(=O)c1cc(Br)c(O)c(Br)c1 [BENZBROMARONE] | > 30 | > 30 | 26 | > 10 | 11 | > 30 | > 30
Clc1cccc(Cl)c1N=C1NCCN1 [CLONIDINE] | > 10 | > 30 | > 10 | > 10 | > 30 | – | > 10
NC(=O)c1ncn([C@@H]2O[C@H](CO)[C@@H](O)[C@H]2O)n1 [RIBAVIRIN] | > 10 | > 10 | > 10 | > 10 | > 10 | > 30 | > 30
CC[C@@H](CO)NC(=O)[C@@H]1C=C2c3cccc4[nH]cc(c34)C[C@H]2N(C)C1 [METHYLERGONOVINE] | > 30 | > 30 | > 30 | – | > 30 | 0.02 | 0.29
CC(C)N(CCCCOCC(=O)NS(C)(=O)=O)c1cnc(-c2ccccc2)c(-c2ccccc2)n1 [SELEXIPAG] | > 30 | > 30 | > 30 | > 30 | > 30 | > 30 | > 30
[H]/N=C(\N/C(=N/[H])NCCCCCCNC(=N)NC(=N)Nc1ccc(Cl)cc1)Nc1ccc(Cl)cc1 [CHLORHEXIDINE] | > 10 | 15.9 | 3 | > 10 | > 30 | > 30 | 3.2
CC(C)C[C@H](CN)CC(=O)O [PREGABALIN] | > 30 | > 30 | > 30 | > 30 | > 30 | – | > 30
CNCCC=C1c2ccccc2CCc2ccccc21 [NORTRIPTYLINE] | > 30 | > 30 | 3.2 | > 30 | > 30 | > 30 | –
Cc1cnc(NC(=O)C2=C(O)c3ccccc3S(=O)(=O)N2C)s1 [MELOXICAM] | > 10 | > 30 | > 10 | > 10 | > 30 | > 30 | > 10
O=C1CN2Cc3c(ccc(Cl)c3Cl)N=C2N1 [ANAGRELIDE] | > 10 | > 30 | > 30 | > 10 | > 30 | > 30 | > 30
CC[C@H]1OC(=O)[C@H](C)[C@@H](O[C@H]2C[C@@](C)(OC)[C@@H](O)[C@H](C)O2)[C@H](C)[C@@H](O[C@@H]2O[C@H](C)C[C@H](N(C)C)[C@H]2O)[C@](C)(O)C[C@@H](C)/C(=N\OCOCCOC)[C@H](C)[C@@H](O)[C@]1(C)O [ROXITHROMYCIN] | > 30 | > 30 | > 30 | – | – | > 30 | > 30
CC(=O)S[C@@H]1CC2=CC(=O)CC[C@]2(C)[C@H]2CC[C@@]3(C)[C@@H](CC[C@@]34CCC(=O)O4)[C@H]12 [SPIRONOLACTONE] | > 30 | > 30 | > 30 | > 10 | 0.19 | > 30 | > 30
C=C(C)[C@@H]1CCC(C)=C[C@H]1c1c(O)cc(CCCCC)cc1O [CANNABIDIOL] | > 30 | 18.3 | 28 | – | – | > 30 | > 30
CNCC[C@H](Oc1cccc2ccccc12)c1cccs1 [DULOXETINE] | > 10 | > 30 | – | > 10 | > 30 | – | 4.6
CC(=N)N1CC[C@H](SC2=C(C(=O)O)N3C(=O)[C@H]([C@@H](C)O)[C@H]3C2)C1 | > 300 | > 300 | 270 | – | – | > 300 | > 300
CCOc1cc(CC(=O)N[C@@H](CC(C)C)c2ccccc2N2CCCCC2)ccc1C(=O)O [REPAGLINIDE] | > 30 | > 30 | > 30 | – | – | 27 | > 30
CNCC[C@@H](Oc1ccccc1C)c1ccccc1 [ATOMOXETINE] | > 30 | > 30 | – | > 30 | > 30 | > 30 | 26
CCCN(CCC)CCc1cccc2c1CC(=O)N2 [ROPINIROLE] | > 30 | > 30 | > 30 | > 10 | > 30 | 6.93 | –
CC(/C=C1\SC(=S)N(CC(=O)O)C1=O)=C\c1ccccc1 | > 30 | > 30 | 20 | > 30 | – | > 30 | –
CC1(C)S[C@@H]2[C@H](NC(=O)[C@H](N)c3ccc(O)cc3)C(=O)N2[C@H]1C(=O)O [AMOXICILLIN] | > 30 | > 30 | > 30 | > 30 | – | > 30 | > 30
CO/N=C(\C(=O)N[C@@H]1C(=O)N2C(C(=O)O)=C(COC(N)=O)CS[C@H]12)c1ccco1 [CEFUROXIME] | > 30 | > 30 | > 30 | – | > 30 | > 30 | > 30
COc1ccc(Cc2nccc3cc(OC)c(OC)cc23)cc1OC [PAPAVERINE] | > 30 | > 30 | > 30 | > 30 | – | > 30 | > 30
O=C(Nc1c(Cl)cncc1Cl)c1ccc(OC(F)F)c(OCC2CC2)c1 [ROFLUMILAST] | > 30 | > 30 | > 30 | – | > 30 | > 30 | > 30
CC1(C)O[C@@H]2C[C@H]3[C@@H]4C[C@H](F)C5=CC(=O)C=C[C@]5(C)[C@H]4[C@@H](O)C[C@]3(C)[C@]2(C(=O)CO)O1 [FLUNISOLIDE] | > 30 | > 30 | > 30 | – | – | > 30 | > 30
C[C@H]1Oc2cc(cnc2N)-c2c(nn(C)c2C#N)CN(C)C(=O)c2ccc(F)cc21 [LORLATINIB] | > 30 | > 30 | > 30 | – | – | > 30 | > 30
